Legend:
[1] = molecular target: T1, GTPase KRas (Homo sapiens, UniProt P01116, G12C); experiment: Inhibition of KRAS G12C mutant in human MIAPaCa2 cells assessed as increase in accumulation of GDP bound KRAS G12C mutant protein incubated for 6 hrs; format: cell-based
[2] = molecular target: T1, GTPase KRas; experiment: Inhibition of KRAS G12C mutant in human NCI-H358 cells assessed as increase in accumulation of GDP bound KRAS G12C mutant protein incubated for 6 hrs; format: cell-based

T1 sequence (P01116 whole entry G12C): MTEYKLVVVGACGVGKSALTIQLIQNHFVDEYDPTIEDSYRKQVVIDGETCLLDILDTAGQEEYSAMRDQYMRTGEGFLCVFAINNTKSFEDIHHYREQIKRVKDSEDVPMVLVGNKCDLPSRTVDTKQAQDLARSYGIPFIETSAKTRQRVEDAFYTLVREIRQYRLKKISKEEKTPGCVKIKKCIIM

| Compound | IC50 [1] | IC50 [2] |
| --- | --- | --- |
| C=CC(=O)N1CCN(c2ncnc3c2CCC(c2c(C)ccc4[nH]ncc24)C3)[C@@H](C)C1 (stereo partly drawn) | 4860 nM | – |
| C=CC(=O)N1CCN(c2nc(OC[C@H]3CCCN3C)nc3c2C[C@@H](C)[C@H](c2c(C)ccc4[nH]ncc24)C3)CC1 | 236 nM | 129 nM |

Reference: ChEMBL document CHEMBL4364352, “Inhibitors of KRAS May Potentially Provide Effective Cancer Treatment” (ACS Med Chem Lett, 2019)
